In patent US20200325239A1, “Modulation of Aminopeptidase N/CD13 and Rheumatoid Arthritis” (THE REGENTS OF THE UNIVERSITY OF MICHIGAN, priority 2016, published 2020):

Columns and labels:
Type in all cases: cell-based, human
[1] = system: RA FLS; test: FLS growth assay (Essen IncuCyte, percent confluence); conditions: antibodies 25 or 50 ng/ml, actinonin 10 μM, bestatin 50 μM, primarily between 24 hours and 120 hours
Procedure: (§1) FIG. 5. […] FLS were seeded on 96-well plates overnight. An Essen Incucyte system was used for both growth (A) and migration (B) assays. Growth was calculated as the difference in percent confluence from time 0. Migration was measured in a scratch-wound assay using relative wound density. All data are expressed as a ratio to untreated FLS of the same cell line. mean±SEM n≥4 (*p≤0.05).
(§2) RA FLS were seeded on Essen Image Lock 96-well plates (Essen Bioscience, Ann Arbor, Mich.) overnight at either 3,000 cells/well for growth or 30,000 cells/well for migration. For growth, the 20% FBS CMRL media was removed and cells were washed 1× with PBS. 100 μl of medium alone (control) or medium containing anti-CD3 (25 or 50 ng/ml, OKT3, used as a non-reactive isotype control antibody in this experiment), anti-CD13 1D7 or WM15 (Biolegend, San Diego, Calif.) (25 or 50 ng/ml), or CD13 chemical inhibitors actinonin (Sigma-Aldrich, St. Louis, Mo.) or bestatin (Sigma-Aldrich, St. Louis, Mo.) (10 μM and 50 μM, respectively) was added to the wells. Images and confluence data were collected using an Essen IncuCyte (Essen Bioscience, Ann Arbor, Mich.). For the scratch-wound migration assay, wounds were made via the Essen scratch-wound tool in the seeded 96-well plate. Plates were then washed 2× with PBS and medium was added similar to the growth plates. Data were collected and the confluence or relative wound density calculated by the Essen IncuCyte.

[2] = system: RA FLS; test: FLS scratch-wound migration assay (relative wound density); conditions: antibodies 25 or 50 ng/ml; actinonin 10 μM, bestatin 50 μM; primarily from 36 hours to 72 hours
Procedure: as §1
as §2, with “Plates were then washed 2× with PBS and medium was added similar to the growth plates.” left out

[3] = system: RA FLS; test: CD13 shedding from FLS cultures with protease inhibitors (CD13 ELISA of supernatant and cell lysate); conditions: 48 hours
Procedure: Fibroblast-like synoviocytes (FLS) were cultured from human synovial tissue obtained at arthroplasty or synovectomy from RA joints by digestion with 1% collagenase and separation through a 7004 cell strainer (16). […] FLS were maintained in Connaught Medical Research Laboratory (CARL) medium (20% fetal bovine serum (FBS), 2 mM L-glutamine, and 1% penicillin/streptomycin), and were used between passages 4 and 10. To avoid the confounding effect of serum CD13, cultures were moved to serum-free Dulbecco's Modified Eagle's medium/F-12 with Peprogrow serum replacement (Peprotech, Rocky Hill, N.J.) before harvesting. Some cultures were treated with protease inhibitors for 48 hours in serum-free medium: pepstatin A (Sigma-Aldrich, St. Louis, Mo.), aprotinin (Sigma-Aldrich, St. Louis, Mo.), leupeptin (Sigma-Aldrich, St. Louis, Mo.), GM6001 InSolution (EMD Millipore, Darmstadt, Germany), or E-64 (Thermo Scientific, Waltham, Mass.).
Cells were lysed in cell lysis buffer (10% NP-40, 10% PMSF, 1% Iodoacetamide, and 0.1% E-64 in TSA) for one hour on ice and spun to remove debris. FLS culture supernatants were concentrated by centrifugation through an Amicon Ultracel 30K filter (EMD Millipore, Darmstadt, Germany).
High-binding ELISA plates were coated with the anti-CD13 monoclonal antibody WM15 (Biolegend, San Diego, Calif.) in 0.1M carbonate buffer pH 9.5 overnight, and then blocked with 1× Animal Free Block (Vector Laboratories, Burlingame, Calif.) overnight. Samples were then applied to the plates either whole or diluted in block with 10 mM EDTA. A standard curve was prepared using recombinant human CD13 (R&D Systems, Minneapolis, Minn.) in block with 10 mM EDTA. 1D7 (i.e., 591.1D7.34, University of Michigan Hybridoma Core), an anti-CD13 monoclonal antibody that was recently described (10), was biotinylated (Biotin-XX Microscale Protein Labeling Kit, Life Technologies, Carlsbad, Calif.) and applied overnight (19). Streptavidin-HRP (Biolegend, San Diego, Calif.) was then added. Between steps, plates were washed with PBS plus 0.05% Tween. The plates were visualized with TMB substrate (BD Biosciences, San Jose, Calif.), stopped with 2M H2SO4, and analyzed on a colorimetric plate reader.
To test this mechanism, various protease inhibitors were added to FLS cultures, including: pepstatin A (aspartic), aprotinin (serine), leupeptin (serine/cysteine), GM6001 (metalloproteinase), and E-64 (cysteine). […] All inhibitors were used at established working concentrations.

[4] = system: FLS; test: CD13 release and cellular CD13 after siRNA knockdown with or without GM6001 (CD13 ELISA); conditions: 25 μM GM6001, 48 hours
Procedure: FLS were grown to confluence, then transfected with siRNA using an Amaxa nucleofector kit. Cells were grown to 75% confluence, then switched to serum-free growth media (Peprogrow) supplemented with 1 ng/ml IL-1 and 10 ng/ml TNFα for 48 hours with or without 25 μM GM6001.
High-binding ELISA plates were coated with the anti-CD13 monoclonal antibody WM15 (Biolegend, San Diego, Calif.) in 0.1M carbonate buffer pH 9.5 overnight, and then blocked with 1× Animal Free Block (Vector Laboratories, Burlingame, Calif.) overnight. Samples were then applied to the plates either whole or diluted in block with 10 mM EDTA. A standard curve was prepared using recombinant human CD13 (R&D Systems, Minneapolis, Minn.) in block with 10 mM EDTA. […] The plates were visualized with TMB substrate (BD Biosciences, San Jose, Calif.), stopped with 2M H2SO4, and analyzed on a colorimetric plate reader.
FLS were transfected by electroporation using an Amaxa Nucleofector and the nucleofector kit for dermal fibroblasts (NHDF, Lonza, Basel, Switzerland). […] Transfection of GFP control plasmid was measured by fluorescent microscopy (EVOSfl, AMG, Mill Creek, Wash.) and flow cytometry (BD Biosciences FACSCalibur, San Jose, Calif.). Knockdown efficiency was measured by qRT-PCR of MMP14 mRNA at the time of harvest for CD13 measurements. […]

[5] = system: CD13 mRNA; test: Regulation of CD13 mRNA in RA FLS by cytokines (qRT-PCR); conditions: time course 0 to 72 hours; for CD13 mRNA in RA FLS, ratio to untreated FLS (in words): IFNγ 1000 U/ml, TNFα 10 ng/ml, IL-17 10 ng/ml
Procedure: FIG. 4. […] FLS were stimulated over a time course of 0-72 hours with IFNγ (1000 U/ml), TNFα (10 ng/ml), or IL-17 (10 ng/ml). Cells were harvested and processed for either mRNA (A), surface expression (B), total cell lysate CD13 (C), or total CD13 in supernatant (D). mRNA was measured by qRT-PCR. CD13 was measured on the surface with anti-CD13 (1D7) and flow cytometry. Cell lysate and supernatant CD13 concentrations were measured by CD13 ELISA. Gating was done to isolate the major cell population and exclude debris and dead cells. Data is expressed as a ratio to unstimulated FLS at the same time point in either ΔΔCt normalized to GAPD (mRNA), mean fluorescent intensity corrected for background florescence with MsIg staining (surface), or CD13 concentration in lysate or supernatant. A n=3 B-D n=1 *p≤0.05.
All procedures involving specimens obtained from human subjects were performed under a protocol approved by the University of Michigan Institutional Review Board. Fibroblast-like synoviocytes (FLS) were cultured from human synovial tissue obtained at arthroplasty or synovectomy from RA joints by digestion with 1% collagenase and separation through a […] (16). FLS were uniformly positive for the FLS marker Cadherin-11. The diagnosis of RA required at least four of the seven 1987 American College of Rheumatology criteria (17). FLS were maintained in Connaught Medical Research Laboratory ([…]) medium (20% fetal bovine serum (FBS), 2 mM L-glutamine, and 1% penicillin/streptomycin), and were used between passages 4 and 10. To avoid the confounding effect of serum CD13, cultures were moved to serum-free Dulbecco's Modified Eagle's medium/F-12 with Peprogrow serum replacement (Peprotech, Rocky Hill, N.J.) before harvesting. Some cultures were treated with protease inhibitors for 48 hours in serum-free medium: pepstatin A (Sigma-Aldrich, St. Louis, Mo.), aprotinin (Sigma-Aldrich, St. Louis, Mo.), leupeptin (Sigma-Aldrich, St. Louis, Mo.), GM6001 InSolution (EMD Millipore, Darmstadt, Germany), or E-64 (Thermo Scientific, Waltham, Mass.). Other cultures were treated with cytokines: recombinant human interferon-γ (rhIFNγ, […]), recombinant human tumor necrosis factor-α (rhTNFα, 10 ng/ml), or recombinant human interleukin-17 (rhIL-17,10 ng/ml) (Peprotech, Rocky Hill, N.J.) for 0, 0.5, 1, 2, 6, 8, 12, 24, 48, or 72 hours in serum-free medium.
mRNA was isolated from FLS (3 wells of a 6-well plate) using the RNAeasy Kit and Qiacube (Qiagen, Venlo, Netherlands). cDNA was prepared using a High Capacity cDNA Kit (Life Technologies, Carlsbad, Calif.). Quantitative reverse transcription polymerase chain reaction (qRT-PCR) was done using TaqMan Gene Expression Assays on a 7500 Real Time PCR System (Life Technologies, Carlsbad, Calif.).
CD13 is present at much higher levels in RA synovial fluid compared to OA. Cultured RA and OA FLS, however, expressed similar amounts of CD13 (10). One possible explanation for this observation is that the pro-inflammatory cytokines in the RA joint could contribute to upregulation of CD13 production by FLS. Cultured RA FLS were treated with IFNγ, TNFα, or IL-17 over a time course from 0 to 72 hours. […] Data shown are a ratio of cytokine-treated FLS CD13 mRNA to untreated FLS CD13 mRNA at the same time point.

[6] = system: RA FLS; test: ELISA for the secretion of CD13 from RA FLS incubated with TIMPs; conditions: 0.6 μg/ml, 48 hours, FLS from 3 RA patients
Procedure: To determine the role of tissue inhibitors of metalloproteinases (TIMPs) in the secretion of CD13, RA FLS (10 aliquots of 10^5, or 10^6, cells) were plated in 6-well plates in RPMI with 10% FBS. When RA FLS became 85% confluent, media was switched to RPMI containing 0.1% FBS. RA FLS were incubated with TIMP-1, TIMP-2 or both for 48 hours. ELISA was performed to determine the levels of soluble CD13 in the conditioned media. Conditioned media (100 μl/well) was added to 96-well plates (Thermo Scientific, USA) for 2 hours at room temperature. After blocking, anti-CD13 antibody, WM15, (10 μg/ml, BioLegend) was added for 2 hours at 37° C. Anti-mouse IgG HRP-linked antibody (1:1000) was added for 1 hour. After adding the TMB substrate solution (BD Biosciences) and stop solution (2N H2SO4), the optical density (OD) was measured at 450 nm by a microplate reader (BIO-TEK, USA). We used FLS from three different RA patients. Both inhibitors were used at 0.6 μg/ml. These concentrations are recommended by the manufacture to inhibit matrix metalloproteinases (MMPs).

Molecule: CC(C)C[C@H](NC(=O)[C@@H](O)[C@H](N)Cc1ccccc1)C(=O)O [Bestatin, bestatin]
- RA FLS cell growth (change in confluence, ratio to untreated FLS) [1]: significant slowing of cell growth
- RA FLS migration in wound healing assay (relative wound density, ratio to untreated) [2]: not found to inhibit FLS migration

Molecule: CNC(=O)[C@H](Cc1c[nH]c2ccccc12)NC(=O)[C@@H](CC(=O)NO)CC(C)C [GM6001]
- CD13 in FLS cell lysates (change, in words) ([3]; FLS cultures, serum-free media with protease inhibitor): No significant difference
- reduction of CD13 protein found in the supernatant ([3]; FLS cultures, serum-free media, GM6001 25 μM, CD13 ELISA): 93.62±4.78%
- block of CD13 release from FLS (in words) ([3]; protease inhibitors at established working concentrations): found to block CD13 release
- CD13 in lysates of GM6001-treated cells [4]: significantly increased
- release of CD13 into the culture supernatant (in words) ([4]; serum-free media with 1 ng/ml IL-1 and 10 ng/ml TNFα): prevented the release of CD13

Molecule: CC(=O)N[C@@H](CC(C)C)C(=O)N[C@@H](CC(C)C)C(=O)N[C@H](C=O)CCCNC(=N)N [Leupeptin, leupeptin]
- increase in CD13 released ([3]; FLS cultures, serum-free media, Leupeptin 10 μM, supernatant): 48.40±14.29%

Molecule: CCCCC[C@H](CC(=O)NO)C(=O)N[C@H](C(=O)N1CCC[C@H]1CO)C(C)C [actinonin]
- RA FLS cell growth (change in confluence, ratio to untreated FLS) [1]: strongest inhibitor of cell proliferation
- RA FLS cell growth (change in confluence, ratio to untreated FLS) ([1]; listed as Actinonin): significant slowing of cell growth
- RA FLS migration in wound healing assay (relative wound density, ratio to untreated) [2]: significant decrease

Molecule: aprotinin
- increase in CD13 expression in FLS cell lysates ([3]; Aprotinin 100 nM): 22.17±6.18%

Molecule: recombinant human interferon-γ [IFNγ]
- CD13 mRNA in RA FLS, ratio to untreated FLS (in words) [5]: upregulated
- time of peak CD13 mRNA expression [5]: around 48 hours

Molecule: recombinant human interleukin-17 [IL-17]
- CD13 mRNA in RA FLS, ratio to untreated FLS (in words) [5]: upregulated
- time of peak CD13 mRNA expression [5]: around 48 hours

Molecule: recombinant human tumor necrosis factor-α [TNFα]
- CD13 mRNA in RA FLS, ratio to untreated FLS (in words) [5]: upregulated
- time of peak CD13 mRNA expression [5]: around 48 hours

Molecule: tissue inhibitor of metalloproteinase 1 [TIMP-1]
- CD13 secretion in conditioned media (OD, ELISA) [6]: decrease was not observed

Molecule: tissue inhibitor of metalloproteinase 2 [TIMP-2]
- CD13 secretion in conditioned media (OD, ELISA) [6]: significant decrease
